Test results reported in ChEMBL document CHEMBL1201862, “PubChem BioAssay data set” (2004).
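Compound exposure: 48 hours, 5 concentrations, 96-well plates. The concentration for 50% growth inhibition is given as GI50.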 Calls of active or inactive are those of the source. Rule as the data show it: active = GI50 up to about 1.1 µM and inactive = higher.

What was measured:
Assay in all cases: growth of human tumour cells (NCI), 48 h
NCI-H23 = test system: NCI-H23
SK-MEL-28 = test system: SK-MEL-28
A549 = test system: A549
EKVX = test system: EKVX
OVCAR-4 = test system: OVCAR-4
SN12C = test system: SN12C
UACC-62 = test system: UACC-62
TK-10 = test system: TK-10
A498 = test system: A498
COLO 205 = test system: COLO 205
OVCAR-5 = test system: OVCAR-5
KM12 = test system: KM12
IGROV-1 = test system: IGROV-1
MCF7 = test system: MCF7
DU-145 = test system: DU-145
HCC 2998 = test system: HCC 2998
HCT-15 = test system: HCT-15
HL-60 = test system: HL-60
SF-268 = test system: SF-268
T47D = test system: T47D

Row | SMILES | GI50 (NCI-H23) | GI50 (SK-MEL-28) | GI50 (A549) | GI50 (EKVX) | GI50 (OVCAR-4) | GI50 (SN12C) | GI50 (UACC-62) | GI50 (TK-10) | GI50 (A498) | GI50 (COLO 205) | GI50 (OVCAR-5) | GI50 (KM12) | GI50 (IGROV-1) | GI50 (MCF7) | GI50 (DU-145) | GI50 (HCC 2998) | GI50 (HCT-15) | GI50 (HL-60) | GI50 (SF-268) | GI50 (T47D)
1 | O=C(Nc1ccc(S(=O)(=O)Nc2ncccn2)cc1)c1c2ccccc2nc2ccccc12 | > 100 µM (inactive) | > 100 µM (inactive) | > 100 µM (inactive) | > 100 µM (inactive) | > 100 µM (inactive) | > 100 µM (inactive) | > 100 µM (inactive) | > 100 µM (inactive) | > 100 µM (inactive) | > 100 µM (inactive) | > 100 µM (inactive) | > 100 µM (inactive) | > 100 µM (inactive) | > 100 µM (inactive) | > 100 µM (inactive) | > 100 µM (inactive) | > 100 µM | < 0.01 µM (active) | > 100 µM (inactive) | –
2 | C=CCN1C(=O)CC1N(CC=C)S(=O)(=O)c1ccc(C)cc1 (stereo not drawn) | > 100 µM (inactive) | > 100 µM (inactive) | > 100 µM (inactive) | > 100 µM (inactive) | > 100 µM (inactive) | 61.7 µM (inactive) | > 100 µM (inactive) | > 100 µM (inactive) | > 100 µM (inactive) | > 100 µM (inactive) | > 100 µM (inactive) | > 100 µM (inactive) | > 100 µM (inactive) | > 100 µM (inactive) | > 100 µM (inactive) | > 100 µM (inactive) | > 100 µM | > 100 µM (inactive) | – | –
3 | CC(=O)N1N=C(c2cc(C)ccc2O)CC1c1cccc(Cl)c1 (stereo not drawn) | 13.5 µM (inactive) | – | 11.8 µM (inactive) | 24.1 µM (inactive) | 13.7 µM (inactive) | 17.5 µM (inactive) | 7.6 µM (inactive) | 17.4 µM (inactive) | – | 6.93 µM (inactive) | 30.1 µM (inactive) | 5.7 µM (inactive) | 2.6 µM (inactive) | 5.79 µM (inactive) | 51.9 µM (inactive) | – | 1.95 µM | 8.53 µM (inactive) | 8.55 µM (inactive) | 23.1 µM (inactive)
4 | Cc1ccc(C(=O)C2C=C(c3ccc(C)cc3)SC3C=CCC32)cc1 (stereo not drawn) | 24.2 µM (inactive) | 17.4 µM (inactive) | 22.9 µM (inactive) | 34.8 µM (inactive) | 30.5 µM (inactive) | 17.2 µM (inactive) | 17.9 µM (inactive) | 25.3 µM (inactive) | 24.7 µM (inactive) | 22.1 µM (inactive) | 18.4 µM (inactive) | 15 µM (inactive) | 19.6 µM (inactive) | – | 32.3 µM (inactive) | – | 21.6 µM | 8.95 µM (inactive) | – | 20.5 µM (inactive)
5 | C=C1c2nc3ccccc3n2C=C(c2ccccc2)N1c1ccccc1 | 33.7 µM (inactive) | – | 30.3 µM (inactive) | > 100 µM (inactive) | 16.4 µM (inactive) | 92.5 µM (inactive) | 43.1 µM (inactive) | 49 µM (inactive) | 65.3 µM (inactive) | 52.5 µM (inactive) | > 100 µM (inactive) | 24.8 µM (inactive) | > 100 µM (inactive) | 14.6 µM (inactive) | > 100 µM (inactive) | 12.5 µM (inactive) | 13.6 µM | 58.7 µM (inactive) | – | –
6 | Oc1c(N2CCOCC2)cc(-c2cc(N3CCOCC3)c(O)c3ccccc23)c2ccccc12 | 2.28 µM (inactive) | 1.75 µM (inactive) | 2.26 µM (inactive) | 11.7 µM (inactive) | 1.93 µM (inactive) | 1.58 µM (inactive) | 2.13 µM (inactive) | 12.9 µM (inactive) | – | 1.93 µM (inactive) | 2.86 µM (inactive) | 6.05 µM (inactive) | 2.4 µM (inactive) | 2.12 µM (inactive) | – | 2.04 µM (inactive) | 2.31 µM | – | 3.33 µM (inactive) | 12.8 µM (inactive)
7 | C=C(Cl)/C(=C\Br)CCC(Cl)C(C)C.C=C(Cl)/C(=C\Cl)CCC(Cl)C(C)C (stereo not drawn) | 14.6 µM (inactive) | 17.2 µM (inactive) | 28 µM (inactive) | 18.7 µM (inactive) | 16.3 µM (inactive) | 17.2 µM (inactive) | 12.7 µM (inactive) | 19.8 µM (inactive) | 20.3 µM (inactive) | 26.3 µM (inactive) | 20.5 µM (inactive) | 14.3 µM (inactive) | 14.7 µM (inactive) | 10.6 µM (inactive) | 18 µM (inactive) | 18.7 µM (inactive) | – | 4.24 µM (inactive) | 18.6 µM (inactive) | –
8 | O=C(N/C(=C/c1ccc(Cl)cc1)c1nc2ccccc2c(=O)n1Nc1ccc([N+](=O)[O-])cc1[N+](=O)[O-])c1ccccc1 | > 100 µM (inactive) | > 100 µM (inactive) | > 100 µM (inactive) | – | > 100 µM (inactive) | > 100 µM (inactive) | > 100 µM (inactive) | > 100 µM (inactive) | – | > 100 µM (inactive) | > 100 µM (inactive) | > 100 µM (inactive) | > 100 µM (inactive) | > 100 µM (inactive) | – | > 100 µM (inactive) | > 100 µM | – | – | > 100 µM (inactive)
9 | CN1CCOC1c1ccccc1O (stereo not drawn) | > 100 µM (inactive) | – | > 100 µM (inactive) | > 100 µM (inactive) | > 100 µM (inactive) | – | > 100 µM (inactive) | > 100 µM (inactive) | > 100 µM (inactive) | > 100 µM (inactive) | > 100 µM (inactive) | > 100 µM (inactive) | > 100 µM (inactive) | > 100 µM (inactive) | – | – | > 100 µM | – | > 100 µM (inactive) | > 100 µM (inactive)
10 | Clc1ccc(/C=N/C23CC4CC(CC(C4)C2)C3)c(Cl)c1 | > 10 µM (inactive) | > 10 µM (inactive) | > 10 µM (inactive) | > 10 µM (inactive) | > 10 µM (inactive) | > 10 µM (inactive) | > 10 µM (inactive) | > 10 µM (inactive) | > 10 µM (inactive) | > 10 µM (inactive) | > 10 µM (inactive) | > 10 µM (inactive) | > 10 µM (inactive) | – | > 10 µM (inactive) | > 10 µM (inactive) | > 10 µM | > 10 µM (inactive) | > 10 µM (inactive) | > 10 µM (inactive)
11 | CCCCCCCCCCCCCCCCOCC(Cl)COP(=O)(O)OP(=O)(O)OCC1OC(n2cnc3c(N)ncnc32)C(O)C1O (stereo not drawn) | > 100 µM (inactive) | > 100 µM (inactive) | > 100 µM (inactive) | > 100 µM (inactive) | > 100 µM (inactive) | > 100 µM (inactive) | > 100 µM (inactive) | > 100 µM (inactive) | > 100 µM (inactive) | > 100 µM (inactive) | 50.7 µM (inactive) | 86.9 µM (inactive) | > 100 µM (inactive) | > 100 µM (inactive) | – | > 100 µM (inactive) | > 100 µM | > 100 µM (inactive) | > 100 µM (inactive) | 84.5 µM (inactive)
12 | O=C(CCCN1CCC(O)(c2ccc(Cl)cc2)CC1)c1ccc(F)cc1 [HALOPERIDOL] | 31 µM (inactive) | 18 µM (inactive) | 42.8 µM (inactive) | 82.4 µM (inactive) | 85.7 µM (inactive) | 37.7 µM (inactive) | 2.31 µM (inactive) | 39.8 µM (inactive) | – | 18.6 µM (inactive) | 28.8 µM (inactive) | 18.6 µM (inactive) | 57.3 µM (inactive) | 37.9 µM (inactive) | 85.1 µM (inactive) | – | 16.6 µM | – | 48.2 µM (inactive) | 37.5 µM (inactive)
